Laboratory results published in the supplement of paper PMC11061612.

Experiments:
Test in all cases: Bliss excess, mean over the matrix (fraction); higher = more synergy
[1] = test system: LU-135 (Small Cell Lung Carcinoma)
Method in brief: (§1)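 After 24 hours at 37°C and 5% CO2 in 1536-well plates, cells in DMEM/F12 or RPMI plus 10% FBS received two-drug dose matrices for 72 hours. Viability came from CellTiter-Glo 2.0 luminescence and was scaled as inhibition, anchored at 0 by vehicle wells and at 1 by blank wells. Combination Emax is taken as the second-highest inhibition in the matrix, and Bliss excess as the observed combination effect less EA + EB − EA·EB, with EA and EB the single-agent effects.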

[2] = test system: Hs-578-T (Breast Carcinoma)
Method in brief: as §1

[3] = test system: OVCA420 (Ovarian Carcinoma)
Method in brief: as §1

[4] = test system: CAL-148 (Breast Carcinoma)
Method in brief: as §1

[5] = test system: EC-GI-10 (Esophageal Squamous Cell Carcinoma)
Method in brief: as §1

[6] = test system: SNU-5 (Gastric Carcinoma)
Method in brief: as §1

[7] = test system: NCI-H82 (Small Cell Lung Carcinoma)
Method in brief: as §1

[8] = test system: HCC1806 (Breast Carcinoma)
Method in brief: as §1

[9] = test system: SK-ES-1 (Ewing's Sarcoma)
Method in brief: as §1

[10] = test system: KP-1N (Pancreatic Carcinoma)
Method in brief: as §1

T98G (Glioblastoma) = test system: T98G (Glioblastoma)
Method in brief: as §1

[11] = test system: RO82-W-1 (Thyroid Gland Carcinoma)
Method in brief: as §1

[12] = test system: HCC-78 (Lung Adenocarcinoma)
Method in brief: as §1

[13] = test system: LB831-BLC (Bladder Carcinoma)
Method in brief: as §1

[14] = test system: MFE-296 (Endometrial Carcinoma)
Method in brief: as §1

ES4 (Ewing's Sarcoma) = test system: ES4 (Ewing's Sarcoma)
Method in brief: as §1

[15] = test system: B-CPAP (Thyroid Gland Carcinoma)
Method in brief: as §1

[16] = test system: KYSE-520 (Esophageal Squamous Cell Carcinoma)
Method in brief: as §1

HOS (Osteosarcoma) = test system: HOS (Osteosarcoma)
Method in brief: as §1

[17] = test system: CCRF-CEM (T-Lymphoblastic Leukemia)
Method in brief: as §1

Compound	Bliss excess [1]	Bliss excess [2]	Bliss excess [3]	Bliss excess [4]	Bliss excess [5]	Bliss excess [6]	Bliss excess [7]	Bliss excess [8]	Bliss excess [9]	Bliss excess [10]	Bliss excess (T98G (Glioblastoma))	Bliss excess [11]	Bliss excess [12]	Bliss excess [13]	Bliss excess [14]	Bliss excess (ES4 (Ewing's Sarcoma))	Bliss excess [15]	Bliss excess [16]	Bliss excess (HOS (Osteosarcoma))	Bliss excess [17]
Cc1c2c(nn1C)CSCc1cc(n(C)n1)CSc1cc(c3ccccc3c1)OCCCc1c(C(=O)O)n(C)c3c-2c(Cl)ccc13 [AZD5991] + C[C@@H]1COCCN1C2=NC(=NC(=C2)C3(CC3)[S@](=N)(=O)C)C4=C5C=CNC5=NC=C4 [AZD6738] (first compound max 1 µM, 7x7, partner max 10 µM)	0.0274	-0.0254	0.0076	0.0584	0.061	-0.0075	-0.0218	0.0218	0.017	0.0679	-0.0069	-0.0303	0.0028	0.0641	0.0723	-0.0118	0.0032	0.0162	0.0356	0.0397
Cc1c2c(nn1C)CSCc1cc(n(C)n1)CSc1cc(c3ccccc3c1)OCCCc1c(C(=O)O)n(C)c3c-2c(Cl)ccc13 [AZD5991] + C[C@@H](Nc1cc(F)cc(F)c1)c1cc(C(=O)N(C)C)cc2c(=O)cc(N3CCOCC3)oc12 [AZD8186] (first compound max 1 µM, 7x7, partner max 3 µM)	0.0307	-0.126	-0.0274	-0.0338	0.0109	0.0155	-0.0121	0.0026	0.023	-0.0533	-0.001	0.0066	-0.005	0.0352	0.0197	-0.0286	-0.0409	-0.0258	-0.0169	0.0055
Cc1c2c(nn1C)CSCc1cc(n(C)n1)CSc1cc(c3ccccc3c1)OCCCc1c(C(=O)O)n(C)c3c-2c(Cl)ccc13 [AZD5991] + Cc1cc2ncnn2cc1Nc1ncc2c(n1)n(C1CCOCC1)c(=O)n2C [AZD7648] (first compound max 1 µM, 7x7, partner max 10 µM)	-0.0237	-0.0058	-0.0531	-0.0121	-0.0555	0.0269	0.0174	-0.0203	0.0001	-0.0518	-0.0663	-0.0503	-0.016	-0.034	-0.0101	-0.0593	-0.0155	-0.0595	-0.0036	0.0837
Cc1c2c(nn1C)CSCc1cc(n(C)n1)CSc1cc(c3ccccc3c1)OCCCc1c(C(=O)O)n(C)c3c-2c(Cl)ccc13 [AZD5991] + Cn1cnc2c(F)c(Nc3ccc(Br)cc3Cl)c(C(=O)NOCCO)cc21 [Selumetinib] (first compound max 1 µM, 7x7, partner max 3 µM)	-0.0003	-0.0568	0.0316	0.0184	0.051	0.0262	-0.0406	0.0254	-0.0186	-0.029	0.0157	-0.0528	-0.0245	-0.018	0.0234	-0.0173	-0.0219	-0.0208	-0.0261	0.0383
C[C@@H]1COCCN1c1cc(C2([S@](C)(=N)=O)CC2)nc(-c2ccnc3[nH]ccc23)n1 [AZD6738] + O=C(c1cc(Cc2n[nH]c(=O)c3ccccc23)ccc1F)N1CCN(C(=O)C2CC2)CC1 [Olaparib] (first compound max 10 µM, 7x7, partner max 10 µM)	0.0331	-0.0002	0.0117	0.0123	-0.0147	-0.0464	-0.0194	0.0103	0.0804	0.0379	-0.0192	-0.098	0.0171	0.0336	0.029	0.0608	0.0364	-0.0402	0.0132	0.0377
Cc1cc2ncnn2cc1Nc1ncc2c(n1)n(C1CCOCC1)c(=O)n2C [AZD7648] + C=CCn1c(=O)c2cnc(Nc3ccc(N4CCN(C)CC4)cc3)nc2n1-c1cccc(C(C)(C)O)n1 [AZD1775] (first compound max 10 µM, partner max 1 µM)	-0.0169	-0.121	-0.0186	0.0051	-0.0049	0.0073	-0.0429	0.0373	0.0322	-0.0681	0.0062	0.131	-0.0417	-0.0611	-0.0096	0.0337	-0.0273	0.0058	-0.0109	0.0337
Cc1cc2ncnn2cc1Nc1ncc2c(n1)n(C1CCOCC1)c(=O)n2C [AZD7648] + CCN(CCO)CCCOc1ccc2c(Nc3cc(CC(=O)Nc4cccc(F)c4)[nH]n3)ncnc2c1 [AZD2811] (first compound max 10 µM, 7x7, partner max 1 µM)	-0.0223	-0.0561	-0.0057	-0.0213	0.0846	0.0543	0.0981	0.071	0.0065	-0.02	0.0116	-0.115	-0.014	-0.0477	-0.0112	0.0076	-0.0264	0.0138	0.0182	-0.0396
Cc1cc2ncnn2cc1Nc1ncc2c(n1)n(C1CCOCC1)c(=O)n2C [AZD7648] + CN(C)CCCOc1ccc(-c2ccc3ncc4c(c3c2)n(C2CCOCC2)c(=O)n4C)cn1 [AZD0156] (first compound max 10 µM, 7x7, partner max 1 µM)	-0.0088	-0.088	0.019	0.0102	0.0001	0.0166	0.0094	0.0654	0.0628	-0.0058	-0.0317	-0.129	0.0106	-0.0154	0.0042	-0.0163	-0.0206	-0.0068	-0.0172	-0.003
Cc1cc2ncnn2cc1Nc1ncc2c(n1)n(C1CCOCC1)c(=O)n2C [AZD7648] + C[C@@H]1COCCN1C2=NC(=NC(=C2)C3(CC3)[S@](=N)(=O)C)C4=C5C=CNC5=NC=C4 [AZD6738] (first compound max 10 µM, 7x7, partner max 10 µM)	0.0123	-0.0744	0.0074	0.0532	-0.0064	0.0337	-0.0596	0.014	0.0046	-0.0035	0.0339	0.0654	-0.0011	0.0485	0.0193	0.0062	-0.0649	0.0356	0.0345	0.0206
Cc1cc2ncnn2cc1Nc1ncc2c(n1)n(C1CCOCC1)c(=O)n2C [AZD7648] + O=C(c1cc(Cc2n[nH]c(=O)c3ccccc23)ccc1F)N1CCN(C(=O)C2CC2)CC1 [Olaparib] (first compound max 10 µM, 7x7, partner max 10 µM)	0.0148	-0.0325	-0.035	-0.0545	-0.0478	-0.0316	-0.0382	-0.0343	0.0254	0.0211	-0.0965	-0.0639	-0.0133	0.0067	-0.0255	0.0132	-0.0034	-0.0138	0.0023	-0.0213
NC1(C(=O)N[C@@H](CCO)c2ccc(Cl)cc2)CCN(c2ncnc3[nH]ccc23)CC1 [Capivasertib] + CC(=O)c1c(C)c2cnc(Nc3ccc(N4CCNCC4)cn3)nc2n(C2CCCC2)c1=O [Palbociclib] (first compound max 10 µM, 7x7, partner max 10 µM)	-0.0357	0.0324	0.0261	-0.0215	-0.0056	-0.0253	-0.0229	0.0075	0.0865	0.0023	0.0304	-0.0125	-0.0134	-0.0586	-0.0349	0.074	-0.046	-0.0342	0.0023	0.0861
NC1(C(=O)N[C@@H](CCO)c2ccc(Cl)cc2)CCN(c2ncnc3[nH]ccc23)CC1 [Capivasertib] + CC(C)n1c(=O)n(C)c2cnc3cc(F)c(-c4ccc(OCCCN5CCCCC5)nc4)cc3c21 [AZD1390] (first compound max 10 µM, 7x7, partner max 0.3 µM)	-0.0242	-0.0363	-0.0406	-0.0509	-0.0418	-0.0708	0.0005	-0.0732	0.0079	-0.0767	-0.0652	-0.0236	-0.0434	-0.0383	-0.0695	-0.0585	-0.0897	-0.0364	-0.0278	-0.0847
NC1(C(=O)N[C@@H](CCO)c2ccc(Cl)cc2)CCN(c2ncnc3[nH]ccc23)CC1 [Capivasertib] + CCN(CCO)CCCOc1ccc2c(Nc3cc(CC(=O)Nc4cccc(F)c4)[nH]n3)ncnc2c1 [AZD2811] (first compound max 10 µM, 7x7, partner max 1 µM)	-0.0334	-0.036	-0.017	-0.0142	0.06	-0.0103	0.0054	0.0012	-0.0359	-0.0423	0.0344	-0.0598	-0.015	-0.0179	-0.0593	0.0317	-0.0298	-0.0495	-0.0107	0.0001
NC1(C(=O)N[C@@H](CCO)c2ccc(Cl)cc2)CCN(c2ncnc3[nH]ccc23)CC1 [Capivasertib] + COc1nnc2ccc(N3CCC(c4ccc(OCCN5CCN(C)C(=O)[C@H]5C)cc4)CC3)nn12 [AZD5153] (first compound max 10 µM, 7x7, partner max 1 µM)	-0.005	0.06	-0.0496	0.0504	0.0434	0.0149	-0.139	-0.003	0.0815	0.0274	0.0908	-0.0585	0.0193	0.0335	0.0901	-0.0175	0.062	-0.0509	0.041	0.058
NC1(C(=O)N[C@@H](CCO)c2ccc(Cl)cc2)CCN(c2ncnc3[nH]ccc23)CC1 [Capivasertib] + C[C@@H]1COCCN1C2=NC(=NC(=C2)C3(CC3)[S@](=N)(=O)C)C4=C5C=CNC5=NC=C4 [AZD6738] (first compound max 10 µM, 7x7, partner max 10 µM)	0.0393	-0.0739	-0.0468	0.0222	-0.0804	-0.0375	-0.0279	-0.0333	-0.0831	-0.0824	-0.0557	-0.0247	-0.0239	-0.0161	-0.0508	-0.0919	-0.0465	-0.0371	-0.0463	0.0092
